Legend:
Test in all cases: relative viability (nuclei count vs DMSO), 5 days (fraction); higher = more cells survive
A-427 = tested on: A-427
Summary of the method: (§1)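 One day after seeding in 1536-well plates, lung cancer cell lines were dosed by pin tool. Dosing was either single-drug or a fixed anchor-drug dose plus five library-drug doses (not always all listed) in √10 steps. After 5 days, nuclei were stained in one fix-and-stain step and counted on 4× images, and relative viability is the nuclei count of treated wells over that of vehicle wells, given as the median of duplicate plates.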

CAL-12T = tested on: CAL-12T
Summary of the method: as §1

COR-L 105 = tested on: COR-L 105
Summary of the method: as §1

COR-L23 = tested on: COR-L23
Summary of the method: as §1

EPLC-272H = tested on: EPLC-272H
Summary of the method: as §1

HOP-62 = tested on: HOP-62
Summary of the method: as §1

LCLC-103H = tested on: LCLC-103H
Summary of the method: as §1

LXF-289 = tested on: LXF-289
Summary of the method: as §1

NCI-H1395 = tested on: NCI-H1395
Summary of the method: as §1

NCI-H1651 = tested on: NCI-H1651
Summary of the method: as §1

NCI-H1975 = tested on: NCI-H1975
Summary of the method: as §1

NCI-H1993 = tested on: NCI-H1993
Summary of the method: as §1

NCI-H2023 = tested on: NCI-H2023
Summary of the method: as §1

NCI-H2085 = tested on: NCI-H2085
Summary of the method: as §1

NCI-H2087 = tested on: NCI-H2087
Summary of the method: as §1

NCI-H3122 = tested on: NCI-H3122
Summary of the method: as §1

NCI-H596 = tested on: NCI-H596
Summary of the method: as §1

NCI-H647 = tested on: NCI-H647
Summary of the method: as §1

NCI-H650 = tested on: NCI-H650
Summary of the method: as §1

PC-14 = tested on: PC-14
Summary of the method: as §1

RERF-LC-KJ = tested on: RERF-LC-KJ
Summary of the method: as §1

SK-MES-1 = tested on: SK-MES-1
Summary of the method: as §1

O=c1[nH]c2ccccc2n1C1CCN(CCCC(c2ccc(F)cc2)c2ccc(F)cc2)CC1 [Pimozide] + C[C@]1(O)C[C@@H](c2nc(-c3ccc4ccc(-c5ccccc5)nc4c3)c3c(N)nccn32)C1 [Linsitinib] (partner 1 µM)
relative viability (A-427; first compound 0.08 µM): 0.985 | relative viability (A-427; first compound 0.253 µM): 1.14 | relative viability (A-427; first compound 0.8 µM): 1.13 | relative viability (A-427; first compound 2.53 µM): 1.15 | relative viability (A-427; first compound 8 µM): 1.08 | relative viability (CAL-12T; first compound 0.08 µM): 0.745 | relative viability (CAL-12T; first compound 0.253 µM): 0.803 | relative viability (CAL-12T; first compound 0.8 µM): 0.936 | relative viability (CAL-12T; first compound 2.53 µM): 0.755 | relative viability (CAL-12T; first compound 8 µM): 0.788 | relative viability (COR-L 105; first compound 0.253 µM): 1.01 | relative viability (COR-L 105; first compound 0.8 µM): 0.795 | relative viability (COR-L 105; first compound 2.53 µM): 0.844 | relative viability (COR-L 105; first compound 8 µM): 0.562 | relative viability (COR-L23; first compound 0.08 µM): 0.956 | relative viability (COR-L23; first compound 0.253 µM): 0.76 | relative viability (COR-L23; first compound 0.8 µM): 0.832 | relative viability (COR-L23; first compound 2.53 µM): 0.887 | relative viability (COR-L23; first compound 8 µM): 0.84 | relative viability (EPLC-272H; first compound 0.08 µM): 0.913 | relative viability (EPLC-272H; first compound 0.253 µM): 1.15 | relative viability (EPLC-272H; first compound 0.8 µM): 1.21 | relative viability (EPLC-272H; first compound 2.53 µM): 1.17 | relative viability (EPLC-272H; first compound 8 µM): 1.09 | relative viability (HOP-62; first compound 0.08 µM): 0.847 | relative viability (HOP-62; first compound 0.253 µM): 0.839 | relative viability (HOP-62; first compound 2.53 µM): 1.04 | relative viability (HOP-62; first compound 8 µM): 0.754 | relative viability (LCLC-103H; first compound 0.08 µM): 1.01 | relative viability (LCLC-103H; first compound 0.253 µM): 1.02 | relative viability (LCLC-103H; first compound 0.8 µM): 1 | relative viability (LCLC-103H; first compound 2.53 µM): 1.07 | relative viability (LCLC-103H; first compound 8 µM): 1.38 | relative viability (LXF-289; first compound 0.08 µM): 0.928 | relative viability (LXF-289; first compound 0.253 µM): 0.902 | relative viability (LXF-289; first compound 0.8 µM): 0.964 | relative viability (LXF-289; first compound 2.53 µM): 0.946 | relative viability (LXF-289; first compound 8 µM): 0.886 | relative viability (NCI-H1395; first compound 0.08 µM): 1.12 | relative viability (NCI-H1395; first compound 0.253 µM): 1.07 | relative viability (NCI-H1395; first compound 0.8 µM): 1.07 | relative viability (NCI-H1395; first compound 2.53 µM): 1.35 | relative viability (NCI-H1395; first compound 8 µM): 1.09 | relative viability (NCI-H1651; first compound 0.08 µM): 0.897 | relative viability (NCI-H1651; first compound 0.253 µM): 1 | relative viability (NCI-H1651; first compound 0.8 µM): 0.922 | relative viability (NCI-H1651; first compound 2.53 µM): 0.97 | relative viability (NCI-H1651; first compound 8 µM): 0.951 | relative viability (NCI-H1975; first compound 0.08 µM): 0.95 | relative viability (NCI-H1975; first compound 0.253 µM): 1.04 | relative viability (NCI-H1975; first compound 0.8 µM): 0.964 | relative viability (NCI-H1975; first compound 2.53 µM): 0.926 | relative viability (NCI-H1975; first compound 8 µM): 0.741 | relative viability (NCI-H1993; first compound 0.08 µM): 0.662 | relative viability (NCI-H1993; first compound 0.253 µM): 0.659 | relative viability (NCI-H1993; first compound 0.8 µM): 0.571 | relative viability (NCI-H1993; first compound 2.53 µM): 0.725 | relative viability (NCI-H1993; first compound 8 µM): 0.755 | relative viability (NCI-H2023; first compound 0.08 µM): 0.613 | relative viability (NCI-H2023; first compound 0.253 µM): 0.654 | relative viability (NCI-H2023; first compound 0.8 µM): 0.61 | relative viability (NCI-H2023; first compound 2.53 µM): 0.667 | relative viability (NCI-H2023; first compound 8 µM): 0.443 | relative viability (NCI-H2085; first compound 0.08 µM): 0.916 | relative viability (NCI-H2085; first compound 0.253 µM): 0.934 | relative viability (NCI-H2085; first compound 0.8 µM): 0.818 | relative viability (NCI-H2085; first compound 2.53 µM): 0.942 | relative viability (NCI-H2085; first compound 8 µM): 0.762 | relative viability (NCI-H2087; first compound 0.08 µM): 0.904 | relative viability (NCI-H2087; first compound 0.253 µM): 0.869 | relative viability (NCI-H2087; first compound 0.8 µM): 0.917 | relative viability (NCI-H2087; first compound 2.53 µM): 1.04 | relative viability (NCI-H2087; first compound 8 µM): 0.96 | relative viability (NCI-H3122; first compound 0.08 µM): 1.01 | relative viability (NCI-H3122; first compound 0.253 µM): 1.06 | relative viability (NCI-H3122; first compound 0.8 µM): 1 | relative viability (NCI-H3122; first compound 2.53 µM): 1.05 | relative viability (NCI-H3122; first compound 8 µM): 1.06 | relative viability (NCI-H596; first compound 0.08 µM): 1.16 | relative viability (NCI-H596; first compound 0.253 µM): 1.12 | relative viability (NCI-H596; first compound 0.8 µM): 1.04 | relative viability (NCI-H596; first compound 2.53 µM): 0.895 | relative viability (NCI-H596; first compound 8 µM): 0.998 | relative viability (NCI-H647; first compound 0.08 µM): 1.16 | relative viability (NCI-H647; first compound 0.253 µM): 1.06 | relative viability (NCI-H647; first compound 0.8 µM): 1.1 | relative viability (NCI-H647; first compound 2.53 µM): 1.17 | relative viability (NCI-H647; first compound 8 µM): 0.779 | relative viability (NCI-H650; first compound 0.08 µM): 0.842 | relative viability (NCI-H650; first compound 0.253 µM): 0.792 | relative viability (NCI-H650; first compound 0.8 µM): 0.911 | relative viability (NCI-H650; first compound 2.53 µM): 0.791 | relative viability (NCI-H650; first compound 8 µM): 0.847 | relative viability (PC-14; first compound 0.253 µM): 0.94 | relative viability (PC-14; first compound 0.8 µM): 0.99 | relative viability (PC-14; first compound 2.53 µM): 0.938 | relative viability (PC-14; first compound 8 µM): 0.91 | relative viability (RERF-LC-KJ; first compound 0.08 µM): 0.885 | relative viability (RERF-LC-KJ; first compound 0.253 µM): 0.813 | relative viability (RERF-LC-KJ; first compound 0.8 µM): 0.787 | relative viability (RERF-LC-KJ; first compound 2.53 µM): 0.842 | relative viability (RERF-LC-KJ; first compound 8 µM): 0.8 | relative viability (SK-MES-1; first compound 0.08 µM): 0.993 | relative viability (SK-MES-1; first compound 0.253 µM): 1.04 | relative viability (SK-MES-1; first compound 0.8 µM): 1.07 | relative viability (SK-MES-1; first compound 2.53 µM): 1.11 | relative viability (SK-MES-1; first compound 8 µM): 1.09
